Assay results published in patent publication US20190119213A1, “OXO-PYRIDINE-DERIVATIVES AS FACTOR XIA INHIBITORS FOR THE TREATMENT OF THROMBOSIS” (BAYER PHARMA AKTIENGESELLSCHAFT, priority 2015, published 2019).

Legend:
human plasma kallikrein = biological target: T1, human plasma kallikrein (Homo sapiens, UniProt P03952); assay: Determination of the plasma kallikrein activity (fluorogenic peptide substrate); type: biochemical; details: plasma kallikrein from Kordia 0.6 nM; substrate H-Pro-Phe-Arg-AMC; 30 min at 22° C.
T1 construct: purchased Kordia
Procedure: To determine the plasma kallikrein inhibition of the substances according to the invention, a biochemical test system is used which utilizes the reaction of a peptidic plasma kallikrein substrate to determine the enzymatic activity of human plasma kallikrein. Here, plasma kallikrein cleaves from the peptic plasma kallikrein substrate the C-terminal aminomethylcoumarin (AMC), the fluorescence of which is measured. The determinations are carried out in microtitre plates.
Test substances are dissolved in dimethyl sulphoxide and serially diluted in dimethyl sulphoxide (3000 μM to 0.0078 μM; resulting final concentrations in the test: 50 μM to […] each case 1 μl of the diluted substance solutions is placed into the wells of white microtitre plates from Greiner (384 wells). 20 μl of assay buffer (50 mM Tris/HCl pH 7.4; 100 mM sodium chloride solution; 5 mM of calcium chloride solution; 0.1% of bovine serum albumin) and 20 μl of plasma kallikrein from Kordia (0.6 nM in assay buffer) are then added successively. After 15 min of incubation, the enzyme reaction is started by addition of 20 μl of the substrate H-Pro-Phe-Arg-AMC dissolved in assay buffer (10 μM in assay buffer) from Bachem, the mixture is incubated at room temperature (22° C.) for 30 min and fluorescence is then measured (excitation: 360 nm, emission: 460 nm). The measured emissions of the test batches with test substance are compared to those of control batches without test substance (only dimethyl sulphoxide instead of test substance in dimethyl sulphoxide), and IC50 values are calculated from the concentration/activity relationships.

human factor XIa = biological target: T2, human factor XIa (Homo sapiens, UniProt P03951); assay: Measurement of FXIa inhibition (fluorogenic peptide substrate); type: biochemical; details: factor XIa from Kordia 0.45 nM; substrate Boc-Glu(OBzl)-Ala-Arg-AMC; 30 min at 22° C.
T2 construct: purchased Kordia
Procedure: The factor XIa inhibition of the inventive substances is determined using a biochemical test system which utilizes the reaction of a peptidic factor XIa substrate to determine the enzymatic activity of human factor XIa. Here, factor XIa cleaves from the peptic factor XIa substrate the C-terminal aminomethylcoumarin (AMC), the fluorescence of which is measured. The determinations are carried out in microtitre plates.
Test substances are dissolved in dimethyl sulphoxide and serially diluted in dimethyl sulphoxide (3000 μM to 0.0078 μM; resulting final concentrations in the test: 50 μM to 0.00013 μM). In each case 1 μl of the diluted substance solutions is placed into the wells of white microtitre plates from Greiner (384 wells). 20 μl of assay buffer (50 mM of Tris/HCl pH 7.4; 100 mM of sodium chloride; 5 mM of calcium chloride; 0.1% of bovine serum albumin) and 20 μl of factor XIa from Kordia (0.45 nM in assay buffer) are then added successively. After 15 min of incubation, the enzyme reaction is started by addition of 20 μl of the factor XIa substrate Boc-Glu(OBzl)-Ala-Arg-AMC dissolved in assay buffer (10 μM in assay buffer) from Bachem, the mixture is incubated at room temperature (22° C.) for 30 min and fluorescence is then measured (excitation: 360 nm, emission: 460 nm). The measured emissions of the test batches with test substance are compared to those of control batches without test substance (only dimethyl sulphoxide instead of test substance in dimethyl sulphoxide), and IC50 values are calculated from the concentration/activity relationships.

T2 sequence (P03951 388-625 limits assumed): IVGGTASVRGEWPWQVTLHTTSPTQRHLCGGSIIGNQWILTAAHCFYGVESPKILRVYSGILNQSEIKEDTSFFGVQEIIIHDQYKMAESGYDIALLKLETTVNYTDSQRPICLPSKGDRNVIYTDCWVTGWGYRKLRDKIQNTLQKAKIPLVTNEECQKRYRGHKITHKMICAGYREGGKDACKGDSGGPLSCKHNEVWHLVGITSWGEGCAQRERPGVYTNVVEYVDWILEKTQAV
T2 sequence (P03951 19-387 partner limits assumed): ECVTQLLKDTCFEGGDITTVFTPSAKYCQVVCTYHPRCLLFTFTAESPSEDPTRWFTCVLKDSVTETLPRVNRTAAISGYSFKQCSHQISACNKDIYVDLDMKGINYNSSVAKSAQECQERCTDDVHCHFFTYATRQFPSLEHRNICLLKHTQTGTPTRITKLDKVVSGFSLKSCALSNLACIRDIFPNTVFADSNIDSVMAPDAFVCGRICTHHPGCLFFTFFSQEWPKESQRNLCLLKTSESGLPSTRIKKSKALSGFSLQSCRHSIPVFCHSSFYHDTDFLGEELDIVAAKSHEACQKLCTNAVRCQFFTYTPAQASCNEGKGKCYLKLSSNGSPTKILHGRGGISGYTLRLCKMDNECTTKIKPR
T1 sequence (P03952 391-638 limits assumed): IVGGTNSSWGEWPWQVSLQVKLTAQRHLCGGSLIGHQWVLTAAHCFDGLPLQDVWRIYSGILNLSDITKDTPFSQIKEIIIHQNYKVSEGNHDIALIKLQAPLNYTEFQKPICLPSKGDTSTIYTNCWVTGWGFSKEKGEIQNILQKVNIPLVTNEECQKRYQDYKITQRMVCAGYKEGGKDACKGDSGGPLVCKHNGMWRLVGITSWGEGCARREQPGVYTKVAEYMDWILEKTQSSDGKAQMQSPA
T1 sequence (P03952 20-390 partner limits assumed): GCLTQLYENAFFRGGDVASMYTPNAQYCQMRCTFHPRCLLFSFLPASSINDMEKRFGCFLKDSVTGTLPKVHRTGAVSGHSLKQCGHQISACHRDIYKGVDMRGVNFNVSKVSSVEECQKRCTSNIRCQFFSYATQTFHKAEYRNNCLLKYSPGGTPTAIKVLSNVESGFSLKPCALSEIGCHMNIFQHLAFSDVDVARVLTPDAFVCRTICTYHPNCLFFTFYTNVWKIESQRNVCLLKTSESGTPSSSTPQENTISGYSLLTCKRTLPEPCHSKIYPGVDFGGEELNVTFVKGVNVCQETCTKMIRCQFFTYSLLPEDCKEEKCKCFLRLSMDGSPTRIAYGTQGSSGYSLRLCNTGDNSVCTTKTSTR

Structure (SMILES): COc1cn(C(CCOC(C)C)C(=O)Nc2ccc(C(=O)O)cc2)c(=O)cc1-c1cc(Cl)ccc1C#N (racemic) [Example 1, 4-({2-[4-(5-Chloro-2-cyanophenyl)-5-methoxy-2-oxopyridin-1(2H)-yl]-4-isopropoxybutanoyl}-amino)benzoic acid (racemate)]
- IC50 (human plasma kallikrein): 5.6 nM
- IC50 (human factor XIa): 1.2 nM

Structure (SMILES): COc1cn(C(CCOC2CCC2)C(=O)Nc2ccc(C(=O)O)cc2)c(=O)cc1-c1cc(Cl)ccc1C#N (racemic) [Example 3, 4-({2-[4-(5-Chloro-2-cyanophenyl)-5-methoxy-2-oxopyridin-1(2H)-yl]-4-(cyclobutyloxy)butanoyl}amino)benzoic acid (racemate)]
- IC50 (human plasma kallikrein): 2.6 nM
- IC50 (human factor XIa): 0.6 nM

Structure (SMILES): COc1cn(C(CCOC(C)(C)C)C(=O)Nc2ccc(C(=O)O)cc2)c(=O)cc1-c1cc(Cl)ccc1C#N (racemic) [Example 5, 4-({4-tert-Butoxy-2-[4-(5-chloro-2-cyanophenyl)-5-methoxy-2-oxopyridin-1(2H)-yl]butanoyl}amino)benzoic acid (racemate)]
- IC50 (human plasma kallikrein): 3.9 nM
- IC50 (human factor XIa): 0.7 nM

Structure (SMILES): COc1cn(C(CCOC(C)(C)C)C(=O)Nc2ccc(C(=O)O)cc2)c(=O)cc1-c1cc(Cl)ccc1OC(F)F (racemic) [Example 7, 4-[(4-tert-Butoxy-2-{4-[5-chloro-2-(difluoromethoxy)phenyl]-5-methoxy-2-oxopyridin-1(2H)-yl}butanoyl)amino]benzoic acid (racemate)]
- IC50 (human plasma kallikrein): 38 nM
- IC50 (human factor XIa): 2.9 nM

Structure (SMILES): COc1cn(C(CCOC2(C)CCC2)C(=O)Nc2ccc(C(=O)O)cc2)c(=O)cc1-c1cc(Cl)ccc1C#N (racemic) [Example 9, 4-({2-[4-(5-Chloro-2-cyanophenyl)-5-methoxy-2-oxopyridin-1(2H)-yl]-4-[(1-methylcyclobutyl)oxy]butanoyl}amino)benzoic acid (racemate)]
- IC50 (human plasma kallikrein): 6.5 nM
- IC50 (human factor XIa): 1 nM

Structure (SMILES): COc1cn(C(CCOC2(C)CCC2)C(=O)Nc2ccc(C(=O)O)cc2)c(=O)cc1-c1cc(Cl)ccc1OC(F)F (racemic) [Example 11, 4-[(2-{4-[5-Chloro-2-(difluoromethoxy)phenyl]-5-methoxy-2-oxopyridin-1(2H)-yl}-4-[(1-methylcyclobutyl)oxy]butanoyl)amino]benzoic acid (racemate)]
- IC50 (human plasma kallikrein): 45 nM
- IC50 (human factor XIa): 2.2 nM

Structure (SMILES): COc1cn([C@@H](CCOC(C)C)C(=O)Nc2ccc(C(=O)O)cc2)c(=O)cc1-c1cc(Cl)ccc1C#N (single isomer, unassigned; enantiomer 2) [Example 2]
- IC50 (human plasma kallikrein): 4.8 nM
- IC50 (human factor XIa): 0.9 nM

Structure (SMILES): COc1cn([C@@H](CCOC2CCC2)C(=O)Nc2ccc(C(=O)O)cc2)c(=O)cc1-c1cc(Cl)ccc1C#N (single isomer, unassigned; enantiomer 2) [Example 4]
- IC50 (human plasma kallikrein): 1.4 nM
- IC50 (human factor XIa): 0.4 nM

Structure (SMILES): COc1cn([C@@H](CCOC(C)(C)C)C(=O)Nc2ccc(C(=O)O)cc2)c(=O)cc1-c1cc(Cl)ccc1C#N (single isomer, unassigned; enantiomer 2) [Example 6]
- IC50 (human plasma kallikrein): 2.2 nM
- IC50 (human factor XIa): 0.3 nM

Structure (SMILES): COc1cn([C@@H](CCOC(C)(C)C)C(=O)Nc2ccc(C(=O)O)cc2)c(=O)cc1-c1cc(Cl)ccc1OC(F)F (single isomer, unassigned; enantiomer 2) [Example 8]
- IC50 (human plasma kallikrein): 29 nM
- IC50 (human factor XIa): 1.5 nM

Structure (SMILES): COc1cn([C@@H](CCOC2(C)CCC2)C(=O)Nc2ccc(C(=O)O)cc2)c(=O)cc1-c1cc(Cl)ccc1C#N (single isomer, unassigned; enantiomer 2) [Example 10]
- IC50 (human plasma kallikrein): 2.4 nM
- IC50 (human factor XIa): 0.4 nM

Structure (SMILES): COc1cn([C@@H](CCOC2(C)CCC2)C(=O)Nc2ccc(C(=O)O)cc2)c(=O)cc1-c1cc(Cl)ccc1OC(F)F (single isomer, unassigned; enantiomer 2) [Example 12]
- IC50 (human plasma kallikrein): 27 nM
- IC50 (human factor XIa): 1.5 nM
